Measurements reported in publication PMC10206524 (European journal of medicinal chemistry, 2022).

What was measured:
Format in all cases: biochemical
[1] = target: T1, human SIRT1 (Homo sapiens, UniProt Q96EB6); assay: Fluorescence-based inhibition assay, SIRT1; conditions: at the highest concentration of 400 μM
T1 sequence (Q96EB6 1-747): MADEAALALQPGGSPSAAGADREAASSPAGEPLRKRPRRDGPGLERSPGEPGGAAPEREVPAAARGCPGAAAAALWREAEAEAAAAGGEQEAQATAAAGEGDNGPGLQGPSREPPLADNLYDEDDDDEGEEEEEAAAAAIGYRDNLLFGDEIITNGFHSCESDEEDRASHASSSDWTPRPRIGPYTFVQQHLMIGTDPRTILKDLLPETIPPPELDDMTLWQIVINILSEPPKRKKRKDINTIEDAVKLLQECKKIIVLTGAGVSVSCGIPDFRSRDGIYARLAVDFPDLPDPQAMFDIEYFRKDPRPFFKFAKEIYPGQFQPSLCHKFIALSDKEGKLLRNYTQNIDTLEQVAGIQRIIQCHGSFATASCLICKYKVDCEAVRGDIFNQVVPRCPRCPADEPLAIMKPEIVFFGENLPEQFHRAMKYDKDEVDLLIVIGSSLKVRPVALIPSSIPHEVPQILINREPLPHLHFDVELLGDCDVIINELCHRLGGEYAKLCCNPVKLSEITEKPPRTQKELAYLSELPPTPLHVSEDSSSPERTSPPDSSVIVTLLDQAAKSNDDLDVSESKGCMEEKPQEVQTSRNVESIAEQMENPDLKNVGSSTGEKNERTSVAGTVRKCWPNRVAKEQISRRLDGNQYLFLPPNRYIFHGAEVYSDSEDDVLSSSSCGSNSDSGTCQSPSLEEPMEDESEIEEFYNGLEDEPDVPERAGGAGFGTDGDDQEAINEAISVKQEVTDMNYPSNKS

[2] = target: T2, human SIRT3 (Homo sapiens, UniProt Q9NTG7); assay: Fluorescence-based inhibition assay, SIRT3; conditions: at the highest concentration of 400 μM
T2 sequence (Q9NTG7 1-399): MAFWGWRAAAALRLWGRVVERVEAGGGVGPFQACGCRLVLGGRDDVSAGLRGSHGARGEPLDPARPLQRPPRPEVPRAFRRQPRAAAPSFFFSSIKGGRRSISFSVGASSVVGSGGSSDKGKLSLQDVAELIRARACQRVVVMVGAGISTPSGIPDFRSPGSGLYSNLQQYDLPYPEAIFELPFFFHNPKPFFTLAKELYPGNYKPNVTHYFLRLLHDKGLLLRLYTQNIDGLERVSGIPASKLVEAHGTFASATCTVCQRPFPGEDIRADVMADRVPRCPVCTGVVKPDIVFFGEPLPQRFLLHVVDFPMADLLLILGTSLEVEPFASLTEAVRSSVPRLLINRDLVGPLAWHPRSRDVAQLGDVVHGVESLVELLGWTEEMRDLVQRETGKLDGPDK

[3] = target: T3, human SIRT2 (Homo sapiens, UniProt Q8IXJ6); assay: Fluorescence-based inhibition assay, SIRT2; conditions: at the highest concentration of 400 μM
T3 sequence (Q8IXJ6 1-389): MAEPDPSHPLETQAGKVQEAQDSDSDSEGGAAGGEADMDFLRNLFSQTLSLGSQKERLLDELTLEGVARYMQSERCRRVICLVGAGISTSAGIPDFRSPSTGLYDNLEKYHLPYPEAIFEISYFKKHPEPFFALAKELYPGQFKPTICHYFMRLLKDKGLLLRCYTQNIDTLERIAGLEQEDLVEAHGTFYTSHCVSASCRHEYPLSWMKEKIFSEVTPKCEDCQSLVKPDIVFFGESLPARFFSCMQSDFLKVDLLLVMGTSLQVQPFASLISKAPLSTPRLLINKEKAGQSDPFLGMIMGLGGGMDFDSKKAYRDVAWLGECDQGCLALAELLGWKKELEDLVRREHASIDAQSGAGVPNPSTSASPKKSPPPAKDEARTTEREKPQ

[4] = target: T4, human SIRT5 (Homo sapiens, UniProt Q9NXA8); assay: Trypsin coupled fluorescence-based inhibition assay, SIRT5; conditions: for fold increased potency against SIRT5 in comparison with 11: more potent than hit 11
T4 sequence (Q9NXA8 37-310): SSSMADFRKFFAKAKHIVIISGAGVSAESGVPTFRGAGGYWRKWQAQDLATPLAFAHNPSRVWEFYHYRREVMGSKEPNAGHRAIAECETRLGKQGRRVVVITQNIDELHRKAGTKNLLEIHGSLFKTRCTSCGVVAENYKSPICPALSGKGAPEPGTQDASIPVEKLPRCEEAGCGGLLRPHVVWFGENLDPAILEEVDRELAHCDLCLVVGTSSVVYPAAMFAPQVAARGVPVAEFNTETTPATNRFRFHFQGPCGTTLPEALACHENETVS

Row | Structure (SMILES) | inhibition against SIRT1 [1] | inhibition against SIRT3 [2] | inhibition against SIRT2 [3] | fold less potent than 11 against SIRT5 ([4]; less potent than hit 11) | fold increased potency against SIRT5 in comparison with 11 [4]
1 | CC(=O)Nc1ccc(-c2csc(Nc3ccc(C(=O)O)c(O)c3)n2)cc1 [Compound 11, 4-((4-(4-acetamidophenyl)thiazol-2-yl)amino)-2-hydroxybenzoic acid] | no inhibitions | no inhibitions | no inhibitions | – | –
2 | CC(=O)Nc1ccc(-c2csc(NC(=S)Nc3ccc(C(=O)O)c(O)c3)n2)cc1 [Compound 14, 4-(3-(4-(4-acetamidophenyl)thiazol-2-yl)thioureido)-2-hydroxybenzoic acid] | no inhibition | no inhibition | no inhibition | – | 2 fold
3 | O=C(O)c1ccc(NC(=S)Nc2nc(-c3ccc([N+](=O)[O-])c(S(=O)(=O)NCc4ccccc4)c3)cs2)cc1O [Compound 43, 4-(3-(4-(3-(N-benzylsulfamoyl)-4-nitrophenyl)thiazol-2-yl)thioureido)-2-hydroxybenzoic acid] | no inhibition | no inhibition | no inhibition | – | 10 fold

Results, then the compound that gave them:

Row | inhibition against SIRT1 [1] | inhibition against SIRT3 [2] | inhibition against SIRT2 [3] | fold less potent than 11 against SIRT5 ([4]; less potent than hit 11) | fold increased potency against SIRT5 in comparison with 11 [4] | Structure (SMILES)
4 | – | – | – | about 8 fold | – | CC(=O)Nc1ccc(-c2csc(Nc3ccc(C(=O)O)cc3)n2)cc1 [Compound 13, 4-((4-(4-acetamidophenyl)thiazol-2-yl)amino)benzoic acid]
5 | – | – | – | – | 6 fold | O=C(O)c1ccc(NC(=S)Nc2nc(-c3ccc([N+](=O)[O-])cc3)cs2)cc1O [Compound 30, 2-hydroxy-4-(3-(4-(4-nitrophenyl)thiazol-2-yl)thioureido)benzoic acid]
